Source: patent publication US4271163A, “Novel 3,4-diaza-bicyclo[4.1.0]hept-2-en-5-ones, their preparation, and therapeutic agents containing these compounds” (BASF Aktiengesellschaft, priority 1978, dated 1981)
Converted amounts (≈) assume the structure as drawn. Read-outs that look alike come from different tables or passages of the source.

Legend:
human thrombocytes = experiment: Inhibition of the collagen-induced aggregation of human thrombocytes in vitro; assay type: cell-based; details: for EC50: 10 min, read-out: Inhibition of collagen-induced thrombocyte aggregation in vitro, EC 50%; for Inhibition of aggregation, R.A. (relative activity): acetylsalicylic acid = 1.00
Protocol: 1. Inhibition of the collagen-induced aggregation of human thrombocytes in vitro.
(§1) Thrombocyte-rich plasma is obtained by centrifuging venous citrate blood (300 g, 10 minutes duration at 4° C.). The photometric measurement of the thrombocyte aggregation is carried out with addition of MgCl2 (final concentration 10 millimoles/l) and of collagen Stago (final concentration 0.02 mg/ml) in a Born Mk 3 aggregometer. The maximum extinction change/sec is used as a measure of the aggregation.
The aggregation-inhibiting activity of the substances is tested after an incubation time of 10 minutes.
The EC 50% is taken to be the concentration causing 50% inhibition of aggregation.
(§2) The effective doses or effective concentrations were calculated from the linear relationships between the logarithm of the dose or concentration and the logarithm of the effect, by means of regression analysis.
(§3) Acetylsalicylic acid was used as the reference substance for the inhibition of thrombocyte aggregation and dihydralazine for the anti-hypertensive effect.

rat thrombocytes = experiment: Inhibition of the collagen-induced aggregation of rat thrombocytes ex vivo; assay type: in vivo, rat (male Sprague-Dawley); details: for ED (33%): Rattus norvegicus, read-out: Inhibition of thrombocyte aggregation, ED 33%; for Inhibition of thrombocyte aggregation, R.A. (relative activity): acetylsalicylic acid = 1.00
Protocol: as §1
2. Inhibition of the collagen-induced aggregation of rat thrombocytes ex vivo.
The substances are administered orally to groups of 10-15 male Sprague-Dawley rat weighing 200-250 g. 1-4 hours after administration, blood is taken under ether narcosis and thrombocyte-rich plasma is obtained by centrifuging. The aggregation after addition of collagen is measured as indicated above. The ED 33% is determined as the dose which inhibits the collagen-induced thrombocyte aggregation by 33%.
as §2, §3

narcotized rats = experiment: Anti-hypertensive effect on narcotized rats; assay type: in vivo, rat (male Sprague-Dawley); details: rats under urethane narcosis, intraperitoneal; for ED (20%): Rattus norvegicus, ip, dose which lowers the blood pressure by 20%, read-out: Reduction in blood pressure, ED 20%; for Reduction in blood pressure, R.A. (relative activity): dihydralazine = 1.00
Protocol: 3. Anti-hypertensive effect on narcotized rats.
To test the anti-hypertensive effect, the substances are administered intraperitoneally to groups of 3-5 male Sprague-Dawley rats weighing 240-280 g, under urethane narcosis ([…] given intraperitoneally).
The measurement of the blood pressure in the carotid artery is carried out by means of Statham transducers. The ED 20% is determined as the dose which lowers the mean carotid blood pressure by 20%.
as §2, §3

[1] = tested on: spontaneously hypertonic rats; experiment: Anti-hypertensive effect on spontaneously hypertonic rats; assay type: in vivo, rat (male spontaneously hypertonic Okamoto); details: for ED (20%): Rattus norvegicus, 2 h, dose which lowers the blood pressure by 20% compared to the control group; for ED (20%) / Anti-hypertensive effect, R.A.: oral administration; for Anti-hypertensive effect, R.A.: dihydralazine = 1.00
Protocol: 4. Anti-hypertensive effect on spontaneously hypertonic rats.
The substances are administered orally to groups of 4-8 male spontaneously hypertonic Okamoto rats weighing 270-340 g. Before, and 2 hours after, the administration, the systolic blood pressure is measured non-surgically by means of piezo-electric crystal sensors.
The ED 20% is determined as the dose which lowers the systolic pressure by 20%, taking into account the values found with untreated control animals.
as §2, §3

[2] = human thrombocytes in vitro, concentration which inhibits the collagen-induced aggregation by 50%, 10 minutes incubation

Row | Compound | EC50 (human thrombocytes; Homo sapiens) | ED (33%) (rat thrombocytes; po) | Inhibition of thrombocyte aggregation, R.A. (relative activity) (rat thrombocytes; rats, oral administration) | ED (20%) (narcotized rats) | Reduction in blood pressure, R.A. (relative activity) (narcotized rats) | ED (20%) [1] | Anti-hypertensive effect, R.A. [1] | EC50 (human thrombocytes; [2]) | Inhibition of aggregation, R.A. (relative activity) (human thrombocytes; human thrombocytes in vitro) | ED (33%) (rat thrombocytes; rats, oral administration, dose which inhibits the collagen-induced aggregation by 33%) | Inhibition of thrombocyte aggregation after oral administration in vivo (in words) (rat thrombocytes; rats, oral, versus acetylsalicylic acid) | Anti-hypertensive effect in spontaneously hypertonic rats after oral administration (in words) ([1]; oral)
1 | CC(=O)Oc1ccccc1C(=O)O [Acetylsalicylic acid, reference compound] | 494 µg/mL (≈ 2740 µM) | 134 mg/kg | 1.00 |  |  |  |  |  |  |  |  | 
2 | NNc1nnc(NN)c2ccccc12 [Dihydralazine, reference compound] |  |  |  | 0.337 mg/kg | 1.0 | 6.85 mg/kg | 1.00 |  |  |  |  | 
3 | CC(=O)Nc1ccc(C2=NNC(=O)C3CC23)cc1 (stereo not shown) [Example 7, 2-(p-acetylaminophenyl)-3,4-diaza-bicyclo[4.1.0]hept-2-en-5-one] |  |  | 4.36 | 0.193 mg/kg | 1.75 | 8.65 mg/kg | 0.79 | 0.14 µg/mL (≈ 0.576 µM) | 3530 | 30.7 mg/kg | far surpasses the effect of acetylsalicylic acid | demonstrable
4 | O=CNc1ccc(C2=NNC(=O)C3CC23)cc1 (stereo not shown) [Example 10, 2-(p-formylaminophenyl)-3,4-diaza-bicyclo[4.1.0]hept-2-en-5-one] |  |  |  | 0.253 mg/kg | 1.33 |  |  | 6.81 µg/mL (≈ 29.7 µM) | 73 |  |  | 
5 | O=C(CCl)Nc1ccc(C2=NNC(=O)C3CC23)cc1 (stereo not shown) [Example 12, 2-(p-chloroacetylaminophenyl)-3,4-diaza-bicyclo[4.1.0]hept-2-en-5-one] |  |  |  | 0.299 mg/kg | 1.13 |  |  | 0.95 µg/mL (≈ 3.42 µM) | 518 |  |  | 
6 | C=CC(=O)Nc1ccc(C2=NNC(=O)C3CC23)cc1 (stereo not shown) [Example 14, 2-(p-acryloylaminophenyl)-3,4-diaza-bicyclo[4.1.0]hept-2-en-5-one] |  |  |  | 0.298 mg/kg | 1.13 |  |  | 0.38 µg/mL (≈ 1.49 µM) | 1310 |  |  | 
7 | CCCC(=O)Nc1ccc(C2=NNC(=O)C3CC23)cc1 (stereo not shown) [Example 15, 2-(p-butyrylaminophenyl)-3,4-diaza-bicyclo[4.1.0]hept-2-en-5-one] |  |  |  | 1.88 mg/kg | 0.18 |  |  | 1.87 µg/mL (≈ 6.89 µM) | 264 |  |  | 
8 | CC(C)C(=O)Nc1ccc(C2=NNC(=O)C3CC23)cc1 (stereo not shown) [Example 16, 2-(p-isobutyrylaminophenyl)-3,4-diaza-bicyclo[4.1.0]hept-2-en-5-one] |  |  |  | 0.402 mg/kg | 0.84 |  |  | 4.88 µg/mL (≈ 18 µM) | 101 |  |  | 
9 | CCC(C)C(=O)Nc1ccc(C2=NNC(=O)C3CC23)cc1 (stereo not shown) [Example 18, 2-[p-(2-methylbutyrylamino)-phenyl]-3,4-diaza-bicyclo[4.1.0]hept-2-en-5-one] |  |  |  | 0.9 mg/kg | 0.37 |  |  | 3.99 µg/mL (≈ 14 µM) | 124 |  |  | 
10 | O=C(CCCl)Nc1ccc(C2=NNC(=O)C3CC23)cc1 (stereo not shown) [Example 19, 2-[p-(3-chloropropionylamino)-phenyl]-3,4-diaza-bicyclo[4.1.0]hept-2-en-5-one] |  |  |  | 0.688 mg/kg | 0.49 |  |  | 3.52 µg/mL (≈ 12.1 µM) | 140 |  |  | 
11 | O=C(CCCCl)Nc1ccc(C2=NNC(=O)C3CC23)cc1 (stereo not shown) [Example 21, 2-[p-(4-chlorobutyrylamino)-phenyl]-3,4-diaza-bicyclo[4.1.0]hept-2-en-5-one] |  |  |  | 6.81 mg/kg | 0.05 |  |  | 2.27 µg/mL (≈ 7.42 µM) | 218 |  |  | 
12 | CC(C)(CBr)C(=O)Nc1ccc(C2=NNC(=O)C3CC23)cc1 (stereo not shown) [Example 22, 2-(p-bromopivaloylaminophenyl)-3,4-diaza-bicyclo[4.1.0]hept-2-en-5-one] |  |  |  | 2.96 mg/kg | 0.11 |  |  | 3.47 µg/mL (≈ 9.53 µM) | 142 |  |  | 
13 | O=C(Nc1ccc(C2=NNC(=O)C3CC23)cc1)C(Cl)Cl (stereo not shown) [Example 23, 2-(p-dichloroacetylaminophenyl)-3,4-diaza-bicyclo[4.1.0]hept-2-en-5-one] |  |  |  | 1.5 mg/kg | 0.23 |  |  | 2.99 µg/mL (≈ 9.58 µM) | 165 |  |  | 
14 | CC(Cl)(Cl)C(=O)Nc1ccc(C2=NNC(=O)C3CC23)cc1 (stereo not shown) [Example 24, 2-[p-(2,2-dichloropropionylamino)-phenyl]-3,4-diaza-bicyclo[4.1.0]hept-2-en-5-one] |  |  |  | 10 mg/kg | 0.03 |  |  | 3.2 µg/mL (≈ 9.81 µM) | 154 |  |  | 
15 | CC1CC1C(=O)Nc1ccc(C2=NNC(=O)C3CC23)cc1 (stereo not shown) [Example 25, 2-[p-(2-methylcyclopropylcarbonylamino)-phenyl]-3,4-diaza-bicyclo[4.1.0]hept-2-en-5-one] |  |  |  | 0.649 mg/kg | 0.52 |  |  | 1.8 µg/mL (≈ 6.35 µM) | 274 |  |  | 
16 | CC1(C(=O)Nc2ccc(C3=NNC(=O)C4CC34)cc2)CC1(Cl)Cl (stereo not shown) [Example 26, 2-[p-(2,2-dichloro-1-methylcyclopropylcarbonylamino)-phenyl]-3,4-diaza-bicyclo[4.1.0]hept-2-en-5-one] |  |  |  | 0.786 mg/kg | 0.43 |  |  | 1.91 µg/mL (≈ 5.42 µM) | 259 |  |  | 
17 | O=C(Nc1ccc(C2=NNC(=O)C3CC23)cc1)C1CCC1 (stereo not shown) [Example 27, 2-(p-cyclobutylcarbonylaminophenyl)-3,4-diaza-bicyclo[4.1.0]hept-2-en-5-one] |  |  |  | 0.398 mg/kg | 0.85 |  |  | 1.42 µg/mL (≈ 5.01 µM) | 348 |  |  | 
18 | O=C(Nc1ccc(C2=NNC(=O)C3CC23)cc1)C1CCCCC1 (stereo not shown) [Example 28, 2-(p-cyclohexylcarbonylaminophenyl)-3,4-diaza-bicyclo[4.1.0]-hept-2-en-5-one] |  |  |  | 0.415 mg/kg | 0.81 |  |  | 5.09 µg/mL (≈ 16.3 µM) | 97 |  |  | 
19 | C/C=C/C(=O)Nc1ccc(C2=NNC(=O)C3CC23)cc1 (stereo not shown) [Example 29, 2-(p-crotonoylaminophenyl)-3,4-diaza-bicyclo[4.1.0]-hept-2-en-5-one] |  |  |  | 1.71 mg/kg | 0.20 |  |  | 2.12 µg/mL (≈ 7.87 µM) | 233 |  |  | 
20 | O=C(Nc1ccc(C2=NNC(=O)C3CC23)cc1)c1ccccc1 (stereo not shown) [Example 30, 2-(p-benzoylaminophenyl)-3,4-diaza-bicyclo[4.1.0]hept-2-en-5-one] |  |  |  | > 10 mg/kg | < 0.03 |  |  | 6.01 µg/mL (≈ 19.7 µM) | 82 |  |  | 
